From article PMC3976273, “Three Amino Acid Residues Bind Corn Odorants to McinOBP1 in the Polyembryonic Endoparasitoid of Macrocentrus cingulum Brischke” (PLoS ONE, 2014)
Residue numbers refer to the chain shown, from its start. Where “and” joins values, the source holds several entries; their conditions need not be identical. Equal entries are not always repeated. Entries after “also recorded” stand apart in the source; their conditions may differ. Where two headings read alike, the source gives them in different places.

What was measured:
McinOBP1-wt [1] = biological target: T1, McinOBP1-wt (Macrocentrus cingulum, UniProt X2D9T4); assay: Fluorescence binding of the probe 1-NPN (direct titration); conditions: dissociation constant (KD) of 1-NPN, 2 μM protein, 50 mM Tris-HCl pH 7.4
Protocol: (§1) Fluorescence binding assays were recorded on Shimadzu fluorescence spectrophotometer (Shimadzu, Japan) with a 1 cm light path quartz cuvette; both excitation and emission silts widths were 5 nm. The probe was excited at 337 nm and emission spectra were recorded between 350 and 500 nm. […] For determining the bound ligand from the intensity values of fluorescence emission assuming that the proteins were 100% active, with a stoichiometry of 1∶1 (protein:ligand) at saturation. The GraphPad Prism 5 (GraphPad Software, Inc.) was used to estimate the K1–NPN (KD of protein complex/1-NPN) values by nonlinear regression for a unique site of binding. Scatchard plots were used to linearize the curves.

[2] = biological target: T2, McinOBP1-m3 (Glu130 to alanine) (Macrocentrus cingulum, UniProt X2D9T4, E130A); assay: as above; conditions: 2 μM protein, pH 7.4
T2 sequence (X2D9T4 21-140 E130A): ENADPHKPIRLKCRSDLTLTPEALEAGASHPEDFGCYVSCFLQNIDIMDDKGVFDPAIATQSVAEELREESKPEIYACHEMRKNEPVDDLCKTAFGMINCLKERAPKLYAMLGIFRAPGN
Excerpt: (§2) The three mutants of McinOBP1, m1 (mutation of amino acid, valine to alanine at 58 position), m2 (mutation of amino acid, leucine to proline at 62 position) and m3 (mutation of amino acid, glutamic to alanine at 130 position), were developed using the kit of Quick-change lightning site-directed mutagenesis (Stratagene, La Jolla, CA, USA). The McinOBP1-wt/pGEM-T Easy construct was used as a template. The primers were designed manually and mutation sites are underlined as listed below.
as §1

[3] = biological target: T3, McinOBP1-m2 (Leu62 to proline) (Macrocentrus cingulum, UniProt X2D9T4, L62P); assay: as above; conditions: 2 μM protein, pH 7.4
T3 sequence (X2D9T4 21-140 L62P): T2 sequence (X2D9T4 21-140 E130A) with L42P, A110E
Excerpt: as §2, §1

[4] = biological target: T4, McinOBP1-m1 (Val58 to alanine) (Macrocentrus cingulum, UniProt X2D9T4, V58A); assay: as above; conditions: 2 μM protein, pH 7.4
T4 sequence (X2D9T4 21-140 V58A): T2 sequence (X2D9T4 21-140 E130A) with V38A, A110E
Excerpt: as §2, §1

McinOBP1-wt [5] = biological target: T1, McinOBP1-wt; assay: Competitive fluorescence binding assay, displacement of 1-NPN; conditions: for binding to McinOBP1-wt (in words): displacement of 1-NPN
Protocol: as §1

[6] = biological target: T2, McinOBP1-m3 (Glu130 to alanine); assay: as above
Excerpt: as §2, §1

[7] = biological target: T3, McinOBP1-m2 (Leu62 to proline); assay: as above
Excerpt: as §2, §1

[8] = biological target: T4, McinOBP1-m1 (Val58 to alanine); assay: as above
Excerpt: as §2, §1

[9] = McinOBP1-wt, pH 7.4, 2 μM 1-NPN, read-out: IC50 (given as dash)
[10] = McinOBP1-wt, pH 7.4, 2 μM 1-NPN
[11] = McinOBP1-wt, pH 7.4, calculated from IC50 and K1-NPN, read-out: KD (calculated dissociation constant)
[12] = read-out: IC50 (ligand concentration displacing 50% of the fluorescence of the McinOBP1/1-NPN complex), McinOBP1-wt, pH 7.4, 2 μM 1-NPN

T1 sequence (X2D9T4 entry or part of it): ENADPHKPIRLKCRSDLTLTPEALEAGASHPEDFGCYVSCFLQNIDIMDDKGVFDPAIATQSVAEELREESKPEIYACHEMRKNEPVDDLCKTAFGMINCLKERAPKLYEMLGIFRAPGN

c1ccc(Nc2cccc3ccccc23)cc1 [1-NPN, N-phenyl-1-naphthylamine]
Kd (McinOBP1-wt [1]): ~6.6 µM and 6.6 µM | Kd [2]: 6.53 ± 0.5 µM | Kd [3]: 13.7 ± 0.71 µM | Kd [4]: 14.6 ± 1.07 µM

CCC(C)CCCC(C)C (centres unmarked) [2,6 dimethyl octane]
binding to McinOBP1-wt (in words) (McinOBP1-wt [5]; McinOBP1-wt): no binding affinity | binding to McinOBP1-wt (in words) (McinOBP1-wt [5]; McinOBP1-wt, listed as 2, 6 dimethyl octane): did not bind | IC50 (McinOBP1-wt [5]; [9]): > 50 µM

CCCCCc1ccco1 [2-Pentylfuran]
IC50 (McinOBP1-wt [5]; [10]): 19.1 µM | Kd (McinOBP1-wt [5]; [11]): 16.6 µM

O=Cc1ccccc1 [Benzaldehyde]
IC50 (McinOBP1-wt [5]): 17.9 µM | Kd (McinOBP1-wt [5]): 15.6 µM

CC/C=C\CCO [Cis-3-Hexen-1-ol]
IC50 [6]: 29.5 µM | Kd ([6]; KD, McinOBP1-m3): 25.6 µM | IC50 [7]: 26.1 µM | Kd [7]: 24.3 µM | IC50 [8]: 23.6 µM | Kd [8]: 22.1 µM | IC50 (McinOBP1-wt [5]): 4.61 µM | Kd (McinOBP1-wt [5]): 4 µM

CCCCCCCCCC=O [Decanal]
binding to McinOBP1-wt (in words) (McinOBP1-wt [5]; McinOBP1-wt): did not bind | binding to McinOBP1-wt (in words) (McinOBP1-wt [5]; McinOBP1-wt, listed as decanal): no binding affinity | IC50 (McinOBP1-wt [5]; [9]): > 50 µM

CCCCCCC=O [Heptanal]
IC50 (McinOBP1-wt [5]; [10]): 35.5 µM | Kd (McinOBP1-wt [5]; [11]): 30.9 µM

C=C(C)[C@H]1CC=C(C)CC1 [Limonene]
Kd (McinOBP1-wt [5]; [11]): 18.3 µM | IC50 (McinOBP1-wt [5]; [12]): 21.1 µM

C=CC(C)(O)CCC=C(C)C (centres unmarked) [Linalool]
IC50 (McinOBP1-wt [5]): 18.6 µM | Kd (McinOBP1-wt [5]): 16.2 µM

CCCCCCCCC=O [Nonanal]
IC50 (McinOBP1-wt [5]; [10]): 19.6 µM | Kd (McinOBP1-wt [5]; [11]): 17 µM

CCCCCC/C=C/C=O [Trans-2-Nonenal]
IC50 [6]: 76.7 µM | Kd ([6]; KD, McinOBP1-m3): 66.5 µM | IC50 [7]: 50.6 µM | Kd [7]: 47.2 µM | IC50 [8]: 13.6 µM | Kd [8]: 12.7 µM | IC50 (McinOBP1-wt [5]): 3.4 µM | Kd (McinOBP1-wt [5]): 2.96 µM

CCCCC/C=C/C=O [Trans-2-Octenal]
IC50 (McinOBP1-wt [5]; [10]): 15.7 µM | Kd (McinOBP1-wt [5]; [11]): 13.6 µM

CC/C=C/CCOC(C)=O [Trans-3-Hexen-1-ol-Acetate]
Kd (McinOBP1-wt [5]; [11]): 20.7 µM | IC50 (McinOBP1-wt [5]; [12]): 23.9 µM

C=C1CC/C=C(\C)CC[C@@H]2[C@@H]1CC2(C)C [Trans-Caryophelle, β- Caryophelle]
Kd ([6]; McinOBP1-m3, listed as trans-caryophelle, read-out: KD): 41.4 ± 5.38 µM | IC50 ([6]; McinOBP1-m3, read-out: IC50): 47.8 µM | Kd ([6]; McinOBP1-m3, read-out: KD): 41.4 µM | IC50 ([7]; McinOBP1-m2, read-out: IC50): 45 µM | Kd ([7]; McinOBP1-m2, read-out: KD): 42 µM | IC50 ([8]; McinOBP1-m1, read-out: IC50): 70.7 µM | Kd ([8]; McinOBP1-m1, read-out: KD): 66.2 µM | Kd (McinOBP1-wt [5]; [11]): 6.53 µM | IC50 (McinOBP1-wt [5]; [12]): 7.51 µM

CCCCCCCCCCC=O [Undecanal]
binding to McinOBP1-wt (in words) (McinOBP1-wt [5]; McinOBP1-wt): did not bind; also recorded: no binding affinity | IC50 (McinOBP1-wt [5]; [9]): > 50 µM

CC/C=C\CCOC(C)=O [cis-3-hexenyl acetate]
Kd (McinOBP1-wt [5]; [11]): 10.3 ± 0.71 µM

CC(=O)/C=C/C1C(C)=CCCC1(C)C (stereo not drawn) [α-Ionone]
IC50 (McinOBP1-wt [5]): 12.1 µM | Kd (McinOBP1-wt [5]): 9.3 ± 0.38 µM

CC1=CCC2CC1C2(C)C (stereo not drawn) [α-pinene]
IC50 (McinOBP1-wt [5]): 17.8 µM | Kd (McinOBP1-wt [5]): 15.5 µM

C=CC(=C)CC/C=C(\C)CCC=C(C)C [β-Farnesene]
Kd (McinOBP1-wt [5]; [11]): 24.8 µM | IC50 (McinOBP1-wt [5]; [12]): 28.5 µM

CC(=O)/C=C/C1=C(C)CCCC1(C)C [β-Ionone]
IC50 (McinOBP1-wt [5]): 10.3 µM | Kd (McinOBP1-wt [5]): 8.97 µM

C=C1CCC2CC1C2(C)C (stereo not drawn) [β-Pinene]
IC50 (McinOBP1-wt [5]): 12.7 µM | Kd (McinOBP1-wt [5]): 10.8 µM

Farnsene
Kd (McinOBP1-wt [5]; [11]): 8.93 µM | IC50 (McinOBP1-wt [5]; [12]): 10.3 µM

Hexenal
Kd (McinOBP1-wt [5]; [11]): 16.4 µM | IC50 (McinOBP1-wt [5]; [12]): 18.9 µM
